From US7906530B2, “1,7-naphthyridine derivatives as p38 MAP kinase inhibitors” (Laboratorios Almirall, S.A., priority 2006, dated 2011)

Legend:
[1] = test system: TNFα production in human monocytic cell line THP-1; assay: Functional assay: inhibition of LPS-induced TNFα production in THP-1 cells; format: cell-based; settings: LPS 10 μg/ml, 5 h at 37° C., TNFα ELISA
[2] = target: T1, human p38alfa (SAPKa) enzyme (Homo sapiens, UniProt Q16539); assay: p38alpha enzymatic inhibition assay (FRET, ATF2 phosphorylation); format: biochemical; settings: 1 h pre-incubation; biotinylated ATF2 0.62 μM, ATP 60 μM; 1 h at 25° C.; read-out: p38α IC50
T1 construct: purchased University of Dundee
T1 sequence (Q16539 whole entry): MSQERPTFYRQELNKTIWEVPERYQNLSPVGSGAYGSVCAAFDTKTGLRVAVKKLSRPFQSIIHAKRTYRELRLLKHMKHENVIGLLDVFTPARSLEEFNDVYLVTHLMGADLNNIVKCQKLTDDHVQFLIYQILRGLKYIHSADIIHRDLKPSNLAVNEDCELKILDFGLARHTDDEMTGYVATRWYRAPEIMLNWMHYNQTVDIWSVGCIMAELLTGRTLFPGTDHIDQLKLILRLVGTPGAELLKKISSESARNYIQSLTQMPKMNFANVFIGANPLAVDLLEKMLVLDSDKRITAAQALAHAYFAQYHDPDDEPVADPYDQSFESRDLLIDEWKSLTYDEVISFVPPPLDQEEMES

| Structure (SMILES) | IC50 [1] [nM] | IC50 [2] [nM] |
| --- | --- | --- |
| [O-][n+]1ccc2c(-c3ccc(F)cc3F)ccnc2c1-c1c(F)cccc1F [Example 19, 4-(2,4-Difluorophenyl)-8-(2,6-difluorophenyl)-1,7-naphthyridine 7-oxide] | 223 |  |
| [O-][n+]1ccc2c(-c3ccc(F)cc3F)cc(C3CCNCC3)nc2c1-c1c(F)cccc1F [Example 29, 4-(2,4-Difluorophenyl)-8-(2,6-difluorophenyl)-2-piperidin-4-yl-1,7-naphthyridine 7-oxide] | 2.45 | 0.9 |
| CC(C)(C)N1CCC(c2cc(-c3ccc(F)cc3F)c3cc[n+]([O-])c(-c4c(F)cccc4F)c3n2)CC1 [Example 35, 2-(1-Tert-butylpiperidin-4-yl)-4-(2,4-difluorophenyl)-8-(2,6-difluorophenyl)-1,7-naphthyridine 7-oxide] | 3.4 | 2.8 |
| CC(C)(C)N1CCC(c2cc(-c3ccc(F)cc3F)c3cc[n+]([O-])c(-c4c(Cl)cccc4Cl)c3n2)CC1 [Example 36, 2-(1-Tert-butylpiperidin-4-yl)-8-(2,6-dichlorophenyl)-4-(2,4-difluorophenyl)-1,7-naphthyridine 7-oxide] | 1.6 | 1.2 |
| [O-][n+]1ccc2c(-c3ccc(F)cc3Cl)ccnc2c1-c1c(F)cccc1F [Example 39, 4-(2-Chloro-4-fluorophenyl)-8-(2,6-difluorophenyl)-1,7-naphthyridine 7-oxide] | 63 | 87 |
| [O-][n+]1ccc2c(-c3ccc(F)cc3Cl)ccnc2c1-c1c(Cl)cccc1Cl [Example 40, 4-(2-Chloro-4-fluorophenyl)-8-(2,6-dichlorophenyl)-1,7-naphthyridine 7-oxide] | 43.5 |  |
| [O-][n+]1ccc2c(-c3ccc(F)cc3Cl)cc(C3CCNCC3)nc2c1-c1c(Cl)cccc1Cl [Example 43, 4-(2-Chloro-4-fluorophenyl)-8-(2,6-dichlorophenyl)-2-piperidin-4-yl-1,7-naphthyridine 7-oxide] | 2.9 |  |
| CC(C)(C)N1CCC(c2cc(-c3ccc(F)cc3Cl)c3cc[n+]([O-])c(-c4c(F)cccc4F)c3n2)CC1 [Example 48, 2-(1-Tert-butylpiperidin-4-yl)-4-(2-chloro-4-fluorophenyl)-8-(2,6-difluorophenyl)-1,7-naphthyridine 7-oxide] | 3 | 1.6 |

Further lines, results first:

| IC50 [1] [nM] | IC50 [2] [nM] | Structure (SMILES) |
| --- | --- | --- |
| 0.46 |  | CC(C)(C)N1CCC(c2cc(-c3ccc(F)cc3Cl)c3cc[n+]([O-])c(-c4c(Cl)cccc4Cl)c3n2)CC1 [Example 49, 2-(1-Tert-butylpiperidin-4-yl)-4-(2-chloro-4-fluorophenyl)-8-(2,6-dichlorophenyl)-1,7-naphthyridine 7-oxide] |
| 4.2 |  | [O-][n+]1ccc2c(-c3ccccc3Cl)cc(C3CCNCC3)nc2c1-c1c(F)cccc1F [Example 52, 4-(2-Chlorophenyl)-8-(2,6-difluorophenyl)-2-piperidin-4-yl-1,7-naphthyridine 7-oxide] |
| 0.53 | 0.34 | [O-][n+]1ccc2c(-c3ccccc3Cl)cc(C3CCNCC3)nc2c1-c1c(Cl)cccc1Cl [Example 53, 4-(2-Chlorophenyl)-8-(2,6-dichlorophenyl)-2-piperidin-4-yl-1,7-naphthyridine 7-oxide] |
| 0.1 | 0.41 | CC(C)(C)N1CCC(c2cc(-c3ccccc3Cl)c3cc[n+]([O-])c(-c4c(Cl)cccc4Cl)c3n2)CC1 [Example 59, 2-(1-Tert-butylpiperidin-4-yl)-4-(2-chlorophenyl)-8-(2,6-dichlorophenyl)-1,7-naphthyridine 7-oxide] |
| 0.9 | 0.37 | [O-][n+]1ccc2c(-c3ccc(F)cc3F)cc(NC3CCNCC3)nc2c1-c1c(Cl)cccc1Cl [Example 86, 8-(2,6-Dichlorophenyl)-4-(2,4-difluorophenyl)-N-piperidin-4-yl-1,7-naphthyridin-2-amine 7-oxide] |
| 0.8 | 1.1 | [O-][n+]1ccc2c(-c3ccc(F)cc3F)cc(N3CCNCC3)nc2c1-c1c(Cl)cccc1Cl [Example 90, 8-(2,6-Dichlorophenyl)-4-(2,4-difluorophenyl)-2-piperazin-1-yl-1,7-naphthyridine 7-oxide] |
| 4.1 |  | [O-][n+]1ccc2c(-c3ccc(F)cc3F)cc(N3CCNCC3)nc2c1-c1c(F)cccc1F [Example 91, 4-(2,4-Difluorophenyl)-8-(2,6-difluorophenyl)-2-piperazin-1-yl-1,7-naphthyridine 7-oxide] |
| 0.2 | 0.92 | [O-][n+]1ccc2c(-c3ccc(F)cc3F)cc(OC3CCNCC3)nc2c1-c1c(Cl)cccc1Cl [Example 95, 8-(2,6-Dichlorophenyl)-4-(2,4-difluorophenyl)-2-(piperidin-4-yloxy)-1,7-naphthyridine 7-oxide] |
| 3.2 | 0.22 | [O-][n+]1ccc2c(-c3ccc(F)cc3F)cc(OC3CCNCC3)nc2c1-c1c(F)cccc1F [Example 96, 4-(2,4-Difluorophenyl)-8-(2,6-difluorophenyl)-2-(piperidin-4-yloxy)-1,7-naphthyridine 7-oxide] |
